Experimental data from publication PMC10792626 (Saudi Pharmaceutical Journal : SPJ, 2023).
In brackets after ≈: the same amount, converted by molar mass.

Molecular target: α-amylase
Experiment: In vitro α-amylase inhibition assay
Type: biochemical
Settings: phosphate buffer pH 6.8, 37 °C

Row | Compound | IC50 α-amylase
1 | C[C@@H]1O[C@@H](OC[C@H]2O[C@@H](Oc3c(-c4ccc(O)c(O)c4)oc4cc(O)cc(O)c4c3=O)[C@H](O)[C@@H](O)[C@@H]2O)[C@H](O)[C@H](O)[C@H]1O [Compound 5, Rutin] | 177.2 ± 2.01 µg/mL (≈ 290 µM)
2 | Quercetin [Compound 4] | 118.4 ± 1.38 µg/mL
3 | O=c1c(O)c(-c2ccc(O)cc2)oc2cc(O)cc(O)c12 [Compound 3, Kaempferol] | 135.2 ± 1.84 µg/mL (≈ 472 µM)
4 | O=C(/C=C/c1ccc(O)cc1)OC[C@H]1O[C@@H](Oc2c(-c3ccc(O)cc3)oc3cc(O)cc(O)c3c2=O)[C@H](O)[C@@H](O)[C@@H]1O [Compound 2, Tiliroside] | 180.6 ± 2.04 µg/mL (≈ 304 µM)
